Experimental data reported in US5236955A, “Anti-fungal agent” (Washington University, priority 1992, dated 1993).

Columns and labels:
[1] = test system: a variety of fungal species, including C. albicans; conditions: Sabouraud dextrose agar; cited from earlier work
[2] = test system: C. neoformans; experiment: Growth of C. neoformans cultures (absorbance at 600 nm); type: cell-based, Cryptococcus neoformans; conditions: single 300 μM dose, exponential phase, 30° C., SAB, up to 24 h
Procedure: (§1) Panel A, survey of the effects of several oxatetradecanoic acids on the growth of C. neoformans. A culture of C. neoformans was grown at 30° C. in SAB media to midlog phase (A600 ~0.5). A single dose of fatty acid was then added to subcultures (final concentration=300 μM). EtOH(0.1%) was used as a negative control. Amphotericin B (AmB) was added (final concentraton=55 μM) as a positive control. Aliquots were withdrawn from the subcultures 0, 0.5, 2, 4, 7, 21, and 24 h after these additions and then absorbance at 600 nm was measured. All assays were done in duplicate or triplicate. A representative test is shown. Panel B, survey of the effects of oxatetradecanoic acids, dioxatetradecanoic acids and oxatridecanoic acids on the viability of C. neoformans. Fatty acid analog was added to the cultures as in Panel A. Aliquots were withdrawn 0.5, 2, 4, 7 or 8, and 24 h later and plated on SAB-agar at various dilutions to determine the number of viable organisms/ml culture. All assays were done in duplicate. Data from a representative test are expressed as the ratio of viable cells in treated cultures relative to a control culture that received 0.1% EtOH. A positive control culture received a single dose of amphotericin B (55 μM); Panel C, dose-dependent reduction in the viability of C. neoformans after addition of 4-oxatetradecanoic acid (O4) to cultures during log-phase growth at 30° C. in SAB. A single dose of the analog was given at T=0 h in the amount indicated and aliquots of the culture were withdrawn at various times to determine the number of viable cells. All assays were done in triplicate. A representative test is shown.
Saccharomyces cerevisiae strain YM2061 (MATa ura3-52 his3Δ200 ade2-101 lys2-801 met LEU2::pRY181 can1; Flick and Johnston, Mol. Cell. Biol. 10, 4757-4769 (1990), Candida albicans strain B311 (obtained from the American Type Tissue Culture, Rockville, Md.), or Cryptococcus neoformans strain L210425 (a clinical isolate that is part of the permanent culture collection of the Mycology Laboratory, Barnes Hospital, St. Louis, Mo.) were grown overnight at 30 C. The S. cerevisiae strain was incubated in YPD medium (1% bacto-yeast extract, Gibco, Long Island, N.Y.), 2% bacto-peptone (Gibco), 2% dextrose). The C. albicans and C. neoformans strains were grown in Sabouraud's media (SAB; 2% (w/v) dextrose, 1% bacto-peptone). The following morning the cultures were diluted into fresh medium to the desired density at 600 nm (early log phase), and subsequently incubated in a rotary shaker at 30° C. until an A600 =0.5 (mid log phase) was achieved. The culture was then divided into 10 ml aliquots. A single 10 μl aliquot of a stock solution of fatty acid analog (prepared in various concentrations using absolute ethanol) was added to the culture so that the final concentration of the compound was 100-500 μM (T=0). Ten microliters of ethanol alone was added to one 10 ml culture which served as the negative control. […] Cell viability was determined at each of these time points by (i) serially diluting the aliquot in 0.15M NaCl and counting cell number in a hemocytometer and (ii) plating 2-3 of the dilutions in triplicate onto plates of SAB/agar (C. albicans and C. neoformans) or YPD/agar (S. cerevisiae). […] The data were expressed as the ratio of viable cells/ml in the fatty acid analog treated subculture to the number of viable cells/ml in the negative (ethanol) control culture. […]

[3] = test system: C. neoformans; experiment: Viability of C. neoformans (viable cells relative to EtOH control culture); type: cell-based, Cryptococcus neoformans; conditions: 300 μM single dose; for fungicidal / fungistatic effect on C. neoformans: screening assay; for log reduction at 300 µM: Cryptococcus neoformans, relative to 0.1% EtOH control, read-out: decrease in viable cells (converted)
Procedure: as §1
Saccharomyces cerevisiae strain YM2061 (MATa ura3-52 his3Δ200 ade2-101 lys2-801 met LEU2::pRY181 can1; Flick and Johnston, Mol. Cell. Biol. 10, 4757-4769 (1990), Candida albicans strain B311 (obtained from the American Type Tissue Culture, Rockville, Md.), or Cryptococcus neoformans strain L210425 (a clinical isolate that is part of the permanent culture collection of the Mycology Laboratory, Barnes Hospital, St. Louis, Mo.) were grown overnight at 30 C. The S. cerevisiae strain was incubated in YPD medium (1% bacto-yeast extract, Gibco, Long Island, N.Y.), 2% bacto-peptone (Gibco), 2% dextrose). The C. albicans and C. neoformans strains were grown in Sabouraud's media (SAB; 2% (w/v) dextrose, 1% bacto-peptone). The following morning the cultures were diluted into fresh medium to the desired density at 600 nm (early log phase), and subsequently incubated in a rotary shaker at 30° C. until an A600 =0.5 (mid log phase) was achieved. The culture was then divided into 10 ml aliquots. A single 10 μl aliquot of a stock solution of fatty acid analog (prepared in various concentrations using absolute ethanol) was added to the culture so that the final concentration of the compound was 100-500 μM (T=0). Ten microliters of ethanol alone was added to one 10 ml culture which served as the negative control. Amphotericin B (AmB; in the form of Fungizone, Squibb) was added (final concentration=55 μM) to another culture which served as the positive control. At T=0 and 0.5-24 h after addition of fatty acid analog to the subcultures, an aliquot was removed for determining the density of the subculture at 600 nm. Cell viability was determined at each of these time points by (i) serially diluting the aliquot in 0.15M NaCl and counting cell number in a hemocytometer and (ii) plating 2-3 of the dilutions in triplicate onto plates of SAB/agar (C. albicans and C. neoformans) or YPD/agar (S. cerevisiae). These plates were subsequently incubated at 30° C. for 24-48 hr to allow for the growth of colonies. The data were expressed as the ratio of viable cells/ml in the fatty acid analog treated subculture to the number of viable cells/ml in the negative (ethanol) control culture.

[4] = test system: C. albicans N-myristoylproteins; experiment: Metabolic labeling of cellular N-myristoylproteins with tritiated fatty acids; type: cell-based; conditions: tritiated analog, 1 h, 30° C.
Procedure: (§2) Cells were labeled for 1 h with fatty acids of equal specific activity. Total cellular proteins were reduced, denatured and subjected to SDS-PAGE. Gels were treated overnight with 1 N hydrocylamine (pH 10) at room temperature followed by EN^3 HANCE. Fluorography was performed at -80° C. The exposure time for all gels was identical (2 weeks) as was the total amount of cellular protein added to each lane (100 μg).
(§3) Analysis of the incorporation of exogenous fatty acids into cellular proteins--Cultures of S. cerevisiae YM2061, C. albicans B311, and C. neoformans L210425 were grown overnight at 30° C. in YPD or SAB broth. In the morning, C. albicans and C. neoformans were diluted to an A600 =0.6. All cultures were subsequently shaken at 30° C. until they achieved an A600 =1.2. A 5 ml aliquot of each culture was then incubated at 30° C. with 100 μCi/ml of either [9,10(n)^3 H]myristate (NEN Research Products, Dupont, Boston, Mass.); [6,7(n)^3 H]4-oxatetradecanoate; [9,10(n)^3 H]6-oxatetradecanoate;[9,10(n)^3 H]11-oxatetradecanoate; or [10,11(n)^3 H]13-oxatetradecanoate (the final specific activity of all tritiated fatty acids=30 Ci/mmol, their final concentration=3.3 μM). The cultures were then chilled on ice for 5 min and the cells harvested by centrifugation at 4000×g for 5 min. The pellet was washed by gentle vortexing in 1 ml of phosphate buffered saline (PBS, maintained at 4° C.). The yeast cells were then pelleted by centrifugation (as above) and broken open by vortexing with 500 μm glass beads in a 200 μl solution containing 240 mM Tris-HCl, pH 6.8, 2% SDS, 0.4% β-mercaptoethanol, 0.002% bromophenol blue, and 10% glycerol. The solution was then boiled for 5 min and cellular debris was removed by centrifugation at 12,000×g for 10 min. One hundred μg [Lowry et al., J. Biol. Chem. 193, 265-275 (1951)] of lysate protein from each sample was subjected to denaturation, reduction and electrophoresis through 12% polyacrylamide gels containing 0.1% SDS [Laemmli, Nature 227, 680-685 (1970)]. Duplicate gels were incubated overnight with 1M Tris, pH 7.4, or 1N hydroxylamine, pH 10. Fluorography was performed by treating gels with EN^3 HANCE (NEN Research Products, Dupont) and, following drying, exposing them to Kodak XAR film at -80° C.

[5] = test system: C. neoformans N-myristoylproteins; experiment: as above; type: cell-based; conditions: tritiated analog, 1 h, 30° C.
Procedure: as §2, §3

[6] = test system: S. cerevisiae N-myristoylproteins; experiment: as above; type: cell-based; conditions: tritiated analog, 1 h, 30° C.
Procedure: as §2, §3

[7] = biological target: T1, human myristoylCoA:protein N-myristoyltransferase (NMT) (Homo sapiens, UniProt P30419); conditions: cited from earlier work
T1 sequence (P30419 1-496): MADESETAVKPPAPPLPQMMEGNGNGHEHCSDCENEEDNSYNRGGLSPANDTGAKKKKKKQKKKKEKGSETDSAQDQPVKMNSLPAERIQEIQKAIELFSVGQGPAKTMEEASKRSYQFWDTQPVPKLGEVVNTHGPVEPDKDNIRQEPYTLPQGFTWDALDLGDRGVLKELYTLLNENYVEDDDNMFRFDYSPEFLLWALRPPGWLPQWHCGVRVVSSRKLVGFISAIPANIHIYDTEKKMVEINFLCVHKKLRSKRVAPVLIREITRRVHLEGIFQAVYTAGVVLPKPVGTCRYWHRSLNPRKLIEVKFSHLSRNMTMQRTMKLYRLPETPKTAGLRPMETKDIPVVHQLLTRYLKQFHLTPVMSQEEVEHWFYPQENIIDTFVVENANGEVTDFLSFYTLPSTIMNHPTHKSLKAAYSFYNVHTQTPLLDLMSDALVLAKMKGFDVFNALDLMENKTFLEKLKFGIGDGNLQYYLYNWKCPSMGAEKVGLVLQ

[8] = test system: human acyl CoA synthetase; conditions: cited from earlier work
[9] = test system: HIV-1; conditions: cited from earlier work

SMILES: CCCCCCCCOCC(=O)O [3-oxaundecanoic acid, reference compound]
- effect on growth of fungal species [1]: broadest spectrum and highest potency

SMILES: CCCCCCCCCCCOCC(=O)O [O3, 3-oxatetradecanoic acid]
- effect on growth of C. neoformans, as determined by optical density [2]: intermediate degrees of growth retardation
- fungicidal / fungistatic effect on C. neoformans [3]: fungicidal
- log reduction at 300 µM [3]: 1
- effect on growth of fungal species [1]: inhibited growth

SMILES: CCCCCCCCOCCCCC(=O)O [O6, 6-Oxatetradecanoic acid]
- effect on growth of C. neoformans, as determined by optical density [2]: intermediate degrees of growth retardation
- time needed to produce the decrease in viable cells [3]: 4 h
- fungicidal / fungistatic effect on C. neoformans [3]: fungicidal
- log reduction at 300 µM [3]: 1
- labeling of C. albicans N-myristoylproteins versus [3H]myristate [4]: barely labeled
- labeling of C. neoformans N-myristoylproteins versus [3H]myristate [5]: more intense labeling of 20 and 16 kDa C. neoformans N-myristoylproteins than did myristate
- labeling of S. cerevisiae N-myristoylproteins versus [3H]myristate [6]: failed to label

SMILES: COCCCCCCCCCCCC(=O)O [O13, 13-oxatetradecanoic acid]
- fungicidal / fungistatic effect on C. neoformans [3]: no measurable effect on the growth
- incorporation into the 55 kDa Gpal polypeptide [6]: not
- labeling of the 20 kDa Arfs [6]: comparable intensity
- substrate for human NMT [7]: is a substrate
- substrate for human acyl CoA synthetase [8]: is a substrate
- HIV-1 replication ([9]; acutely and chronically infected human T-lymphocyte cell lines): inhibits HIV-1 replication
- cellular toxicity at HIV-1 inhibiting doses ([9]; human T-lymphocyte cell lines): do not cause cellular toxicity
